Experimental findings from publication PMC8892849 (ACS Omega, 2022) are described below.

Data set [1] relates to hepatocellular carcinoma (HepG-2). As to the kind of experiment: In vitro cytotoxic assay. The conditions noted are these: for IC50: Homo sapiens, HepG2, 48 h, read-out: IC50 (mean ± SEM) HepG-2; for SI (selectivity index) HepG-2: normal PBMC vs HepG-2. It is filed as cell-based, human.
The subject of data set [2] is prostate carcinoma (PC-3). The data set can be described thus: In vitro cytotoxic assay. The class given is cell-based, human. Particulars: for IC50: Homo sapiens, 48 h, read-out: IC50 (mean ± SEM) PC-3; for SI (selectivity index) PC-3: normal PBMC vs PC-3.
The subject of data set [3] is breast adenocarcinoma (MCF-7). As to the kind of experiment: In vitro cytotoxic assay. The class given is cell-based, human. The conditions noted are these: for IC50: Homo sapiens, MCF7, 48 h, read-out: IC50 (mean ± SEM) MCF-7; for SI (selectivity index) MCF-7: normal PBMC vs MCF-7.
Data set [4] deals with non-small cell lung cancer cells (A-549). The data set can be described thus: In vitro cytotoxic assay. Particulars: for IC50: Homo sapiens, A549, 48 h, read-out: IC50 (mean ± SEM) A-549; for SI (selectivity index) A-549: normal PBMC vs A-549. It is filed as cell-based, human.
The nature of the next data set: In vitro cytotoxic assay. The class given is cell-based. Particulars: normal peripheral blood mononuclear cells (PBMCs).
A further data set has as its system p53 ubiquitination. As to the kind of experiment: In vivo p53 ubiquitination inhibition of MCF-7 cells. The class given is cell-based. The conditions noted are these: Homo sapiens, MCF7, 6 h, read-out: IC50 (mean ± SEM) p53 ubiquitination.
Another data set has as its target EGFR^WT (Homo sapiens, UniProt P00533). As to the kind of experiment: HTRF kinase inhibition assay, EGFR^WT. For orientation: Time-resolved FRET reads energy transfer from a long-lived donor to a nearby acceptor.
The target in the next data set is EGFR^T790M (Homo sapiens, UniProt P00533, T790M). The data set can be described thus: HTRF kinase inhibition assay, EGFR^T790M.
EGFR^T790M, sequence (P00533 25-1210 T790M): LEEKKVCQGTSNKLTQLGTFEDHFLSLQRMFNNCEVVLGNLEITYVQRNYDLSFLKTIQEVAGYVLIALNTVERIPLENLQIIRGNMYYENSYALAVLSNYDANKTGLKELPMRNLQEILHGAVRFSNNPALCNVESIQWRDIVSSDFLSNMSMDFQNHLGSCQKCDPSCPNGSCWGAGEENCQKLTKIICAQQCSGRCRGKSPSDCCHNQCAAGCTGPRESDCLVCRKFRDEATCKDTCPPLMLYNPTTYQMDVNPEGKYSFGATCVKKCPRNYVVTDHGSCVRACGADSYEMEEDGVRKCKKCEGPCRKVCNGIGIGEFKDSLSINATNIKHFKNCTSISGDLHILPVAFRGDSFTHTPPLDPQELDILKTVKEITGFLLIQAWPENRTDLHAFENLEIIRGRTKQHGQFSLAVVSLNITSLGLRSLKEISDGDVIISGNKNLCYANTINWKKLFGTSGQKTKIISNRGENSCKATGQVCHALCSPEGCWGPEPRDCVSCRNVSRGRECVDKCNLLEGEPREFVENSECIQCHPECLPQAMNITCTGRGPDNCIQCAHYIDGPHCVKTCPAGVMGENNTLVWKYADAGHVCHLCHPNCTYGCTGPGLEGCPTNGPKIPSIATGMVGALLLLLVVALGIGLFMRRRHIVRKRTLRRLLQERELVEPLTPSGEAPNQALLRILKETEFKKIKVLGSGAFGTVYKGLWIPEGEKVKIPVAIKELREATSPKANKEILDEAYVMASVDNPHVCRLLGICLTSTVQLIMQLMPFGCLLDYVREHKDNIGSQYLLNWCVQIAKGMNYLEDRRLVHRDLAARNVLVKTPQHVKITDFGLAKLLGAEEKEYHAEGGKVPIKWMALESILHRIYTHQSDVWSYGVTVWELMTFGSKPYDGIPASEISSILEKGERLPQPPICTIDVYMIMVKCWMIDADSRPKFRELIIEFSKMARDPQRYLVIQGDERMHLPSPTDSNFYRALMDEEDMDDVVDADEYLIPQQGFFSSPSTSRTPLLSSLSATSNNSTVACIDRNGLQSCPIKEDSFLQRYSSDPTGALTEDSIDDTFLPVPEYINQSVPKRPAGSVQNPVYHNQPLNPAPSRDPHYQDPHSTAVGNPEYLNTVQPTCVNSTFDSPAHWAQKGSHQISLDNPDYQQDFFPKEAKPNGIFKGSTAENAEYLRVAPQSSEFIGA

EGFR^WT, sequence (P00533 25-1210): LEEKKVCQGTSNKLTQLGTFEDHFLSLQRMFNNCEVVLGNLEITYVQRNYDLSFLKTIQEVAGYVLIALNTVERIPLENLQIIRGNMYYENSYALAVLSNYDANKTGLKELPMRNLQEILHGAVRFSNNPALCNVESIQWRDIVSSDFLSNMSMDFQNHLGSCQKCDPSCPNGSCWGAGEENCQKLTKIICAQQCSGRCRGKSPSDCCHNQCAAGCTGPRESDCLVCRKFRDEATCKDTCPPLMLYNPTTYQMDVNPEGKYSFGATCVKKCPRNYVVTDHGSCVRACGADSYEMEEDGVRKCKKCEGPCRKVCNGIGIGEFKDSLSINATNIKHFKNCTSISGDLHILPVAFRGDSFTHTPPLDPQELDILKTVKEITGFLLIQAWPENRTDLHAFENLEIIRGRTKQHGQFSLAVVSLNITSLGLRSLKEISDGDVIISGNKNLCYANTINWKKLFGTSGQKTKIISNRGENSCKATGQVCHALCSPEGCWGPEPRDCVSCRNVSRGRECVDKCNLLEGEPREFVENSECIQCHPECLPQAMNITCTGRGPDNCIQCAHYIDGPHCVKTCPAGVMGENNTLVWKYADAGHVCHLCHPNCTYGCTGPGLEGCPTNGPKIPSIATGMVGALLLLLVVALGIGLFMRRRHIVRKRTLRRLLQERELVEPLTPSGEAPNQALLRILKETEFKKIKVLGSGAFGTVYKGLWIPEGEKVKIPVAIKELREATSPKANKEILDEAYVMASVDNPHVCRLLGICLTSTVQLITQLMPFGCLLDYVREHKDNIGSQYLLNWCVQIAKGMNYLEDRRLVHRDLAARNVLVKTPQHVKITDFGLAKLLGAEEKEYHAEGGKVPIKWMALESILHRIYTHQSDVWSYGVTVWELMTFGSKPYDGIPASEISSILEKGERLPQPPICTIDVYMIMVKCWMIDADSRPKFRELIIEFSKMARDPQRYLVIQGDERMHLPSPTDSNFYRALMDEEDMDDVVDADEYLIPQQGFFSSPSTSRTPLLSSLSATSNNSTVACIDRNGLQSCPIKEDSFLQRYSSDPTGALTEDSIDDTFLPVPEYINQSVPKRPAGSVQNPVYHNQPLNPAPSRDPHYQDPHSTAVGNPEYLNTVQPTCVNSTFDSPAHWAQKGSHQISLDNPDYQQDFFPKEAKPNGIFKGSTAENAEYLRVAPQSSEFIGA

Take `c1ccc(Cc2nnc(Nc3nccs3)[nH]2)cc1` [Compound 5b, N-(5-Benzyl-4H-1,2,4-triazol-3-yl)thiazol-2-amine]: the 50% inhibitory concentration (IC50) in data set [1] is 38.49 ± 0.02 µM; in data set [2], 18.22 ± 0.03 µM; in data set [3], 4.18 ± 0.03 µM; in data set [4], 8.27 ± 0.03 µM; in the data set with p53 ubiquitination, 0.00062 ± 5e-05 µM; against EGFR^WT it was 0.22 ± 0.15 µM. In addition, the IC50 on EGFR^T790M came to 0.13 ± 0.11 µM. Also, the “SI (selectivity index) HepG-2” value in data set [1] is “SI = 4.30”. In data set [2], the “SI (selectivity index) PC-3” value is reported as “SI = 9.09”. The “SI (selectivity index) MCF-7” value in data set [3] is reported as “SI = 39.65”. The “SI (selectivity index) A-549” value in data set [4] was “SI = 20.04”. The compound also returned an IC50 at 48 h in “In vitro cytotoxic assay” of 166 ± 17.4 µM.
`Oc1cccc(Nc2nc(Cc3ccccc3)nn2-c2ccccc2)c1` [Compound 6b, 3-((3-Benzyl-1-phenyl-1H-1,2,4-triazol-5-yl)amino)phenol]: the IC50 turned out to be 5.47 ± 0.02 µM in data set [1]; 13.21 ± 0.06 µM in data set [2]; 1.29 ± 0.03 µM in data set [3]; 3.18 ± 0.03 µM in data set [4]; 0.0005 ± 5e-05 µM in the data set with p53 ubiquitination; 0.08 ± 0.05 µM against EGFR^WT. This compound also had an IC50 on EGFR^T790M of 0.09 ± 0.01 µM. The “SI (selectivity index) HepG-2” value in data set [1] was “SI = 32.58”. Besides, the “SI (selectivity index) PC-3” value in data set [2] was “SI = 13.49”. For the same compound, the “folds more potent than doxorubicin and erlotinib” value in data set [3] (MCF-7 cells) turned out to be 3.2 folds. Also, in data set [3], the “SI (selectivity index) MCF-7” value was “SI = 138.16”. Moreover, the “folds more potent than doxorubicin” value in data set [4] (A-549 cell line) was found to be 2.6 folds. In addition, the “SI (selectivity index) A-549” value in data set [4] was “SI = 56.04”. The compound also gave an IC50 at 48 h in the data set “In vitro cytotoxic assay” of 178 ± 17.7 µM. For the same compound, the “fold more potent EGFR^WT inhibitor than erlotinib” value on EGFR^WT (EGFR^WT) worked out at 1 fold.
For `O=[N+]([O-])c1ccc(Nc2nc(Cc3ccccc3)nn2-c2ccccc2)c(Cl)c1` [Compound 6c, 3-Benzyl-N-(2-chloro-4-nitrophenyl)-1-phenyl-1H-1,2,4-triazol-5-amine], the IC50 was found to be 7.73 ± 0.04 µM in data set [1]; 26.41 ± 0.05 µM in data set [2]; 2.51 ± 0.06 µM in data set [3]; 5.8 ± 0.05 µM in data set [4]; 0.00048 ± 2e-05 µM in the data set with p53 ubiquitination; 0.15 ± 0.02 µM against EGFR^WT. Moreover, the IC50 against EGFR^T790M was 0.13 ± 0.07 µM. Moreover, the “SI (selectivity index) HepG-2” value in data set [1] is reported as “SI = 24.27”. Also, in data set [2], the “SI (selectivity index) PC-3” value is on record as “SI = 7.10”. The “SI (selectivity index) MCF-7” value in data set [3] is reported as “SI = 74.76”. Besides, the “SI (selectivity index) A-549” value in data set [4] is given as “SI = 32.35”. In the data set “In vitro cytotoxic assay”, this compound showed a 50% inhibitory concentration (IC50) at 48 h of 188 ± 19.8 µM.

Broadly, the IC50 is the midpoint of a concentration-inhibition curve.
